± gives the expanded uncertainty stated by the source.
Conditions: 298.15 K; 101.33 kPa; Crystal; X-ray diffraction

With `O.O.O.O.O.O.O.O=C([O-])c1cccc(C(=O)[O-])n1.O=C([O-])c1cccc(C(=O)[O-])n1.[Cu+2].[K+].[K+]` [dipotassium copper 2,6-pyridinedicarboxylate heptahydrate] the mass density was 1740 ± 2 kg/m3.
For `O.O.O.O.O.O.O.O=C([O-])c1cccc(C(=O)[O-])n1.O=C([O-])c1cccc(C(=O)[O-])n1.[K+].[K+].[Ni+2]` [dipotassium nickel 2,6-pyridinedicarboxylate heptahydrate], the mass density was 1723 ± 2 kg/m3.
